Reference: US20250304551A1 (SHANGHAI APEIRON THERAPEUTICS COMPANY LIMITED, priority 2022, published 2025)

Legend:
[1] = target: T1, Human KIF18A (amino acid sequence 1-417) (Homo sapiens, UniProt Q8NI77); experiment: Enzyme activity detection experiment (ADP-Glo, KIF18A with tubulin and ATP); assay type: biochemical; details: tubulin 60 μg/mL, ATP 25 μM, KIF18A protein 2.5 nM, 120 minutes at ambient temperature, ADP-Glo chemiluminescence
T1 construct: purchased Viva Biotech (Shanghai) Ltd
Outline: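 KIF18A (2.5 nM) was incubated with tubulin (60 μg/mL as added), ATP (25 μM) and serially diluted compound for 120 min at ambient temperature. ADP formed was detected by ADP-Glo: reagent for 30 min, then detection reagent for 30 min in the dark, with chemiluminescence read-out.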

OVCAR3 cells = experiment: Cell proliferation activity test, OVCAR3 (CyQUANT Direct); assay type: cell-based; details: Homo sapiens, OVCAR-3, 72 h, 3 days incubation, CyQUANT fluorescence detection, read-out: OVCAR-3 Cell Viability_IC50_nM
Outline: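 OVCAR3 cells seeded overnight, then exposed to compounds at 0-10 μM final (0.20% DMSO) for 3 days at 37° C. Cell number read by CyQUANT Direct fluorescence after 60 min at 37° C.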

HT29 cells = experiment: CyQuant cell proliferation activity test, HT29; assay type: cell-based; details: Homo sapiens, HT-29, 72 h, HT29 2000 cells per well, 3 days incubation, initial concentration 3000 nM, IC50 by XLFIT, read-out: HT-29 Cell Viability_IC50_nM
Method: Materials and Cells: HT29 cells were purchased from Nanjing Cobioer Biosciences Co., Ltd.; RPM-1640 medium, fetal bovine serum, Trypsin-EDTA (0.25%), DMSO, 96-well plates, and CyQuant reagents were purchased from ThermoFisher (USA).
Cell Culture: Culture HT29 cells with RPMI-1640 containing 10% fetal bovine serum under the condition of 37° C. and 5% CO2. Only cells in the logarithmic growth phase can be used for the test.
Cell Proliferation Activity Test: Use the CyQuant reagent to detect the proliferation inhibitory activity of compounds on HT29 cells. Adjust the cell density and inoculate 100 μL per well into the 96-well plate (HT29 at 2000 cells per well), then incubate overnight under the condition of 37° C. and […]. Add compounds of various target concentrations (initial concentration of 3000 nM, 3-fold dilution, 9 concentration gradients), and make the DMSO content 0.20%. Incubate the cell plates at 37° C. and 5% CO2 for 3 days. Incubate with CyQuant reagent for 1 h, read the plate by Envision, and calculate IC50 using XLFIT.

T1 sequence (Q8NI77 1-417): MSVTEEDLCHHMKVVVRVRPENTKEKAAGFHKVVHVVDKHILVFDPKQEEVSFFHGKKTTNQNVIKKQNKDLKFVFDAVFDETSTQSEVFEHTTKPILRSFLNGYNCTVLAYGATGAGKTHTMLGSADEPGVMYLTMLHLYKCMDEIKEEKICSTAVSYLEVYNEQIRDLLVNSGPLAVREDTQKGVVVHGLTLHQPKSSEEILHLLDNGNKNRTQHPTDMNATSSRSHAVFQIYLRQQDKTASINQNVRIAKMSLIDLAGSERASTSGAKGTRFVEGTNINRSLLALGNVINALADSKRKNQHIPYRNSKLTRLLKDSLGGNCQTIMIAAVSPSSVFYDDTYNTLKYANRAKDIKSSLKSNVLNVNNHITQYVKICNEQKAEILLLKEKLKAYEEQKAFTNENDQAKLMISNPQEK
T1 sequence (Q2XVP4 whole entry partner): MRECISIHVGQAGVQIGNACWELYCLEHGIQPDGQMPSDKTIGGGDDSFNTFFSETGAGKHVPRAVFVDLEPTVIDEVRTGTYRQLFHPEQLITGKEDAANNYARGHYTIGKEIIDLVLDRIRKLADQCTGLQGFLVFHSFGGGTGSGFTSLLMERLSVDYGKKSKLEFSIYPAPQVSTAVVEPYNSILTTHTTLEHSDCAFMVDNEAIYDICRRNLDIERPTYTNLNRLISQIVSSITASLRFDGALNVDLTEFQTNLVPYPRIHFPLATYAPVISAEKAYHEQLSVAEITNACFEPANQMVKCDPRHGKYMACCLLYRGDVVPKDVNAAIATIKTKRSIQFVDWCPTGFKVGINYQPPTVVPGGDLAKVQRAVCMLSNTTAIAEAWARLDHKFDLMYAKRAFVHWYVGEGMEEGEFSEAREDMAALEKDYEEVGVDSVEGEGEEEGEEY
T1 sequence (P02554 whole entry partner): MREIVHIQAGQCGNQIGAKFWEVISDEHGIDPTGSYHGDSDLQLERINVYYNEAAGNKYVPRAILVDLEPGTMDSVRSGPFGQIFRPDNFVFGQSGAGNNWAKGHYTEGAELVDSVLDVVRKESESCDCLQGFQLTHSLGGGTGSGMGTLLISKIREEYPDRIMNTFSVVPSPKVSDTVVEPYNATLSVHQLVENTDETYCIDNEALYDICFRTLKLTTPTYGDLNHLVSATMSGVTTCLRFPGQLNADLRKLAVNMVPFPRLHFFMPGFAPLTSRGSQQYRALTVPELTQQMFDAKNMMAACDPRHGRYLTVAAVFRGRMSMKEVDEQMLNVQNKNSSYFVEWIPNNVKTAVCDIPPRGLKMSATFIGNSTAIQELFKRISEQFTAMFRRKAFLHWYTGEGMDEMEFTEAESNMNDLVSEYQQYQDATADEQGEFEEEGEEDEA

SMILES	IC50 [1]	IC50 (OVCAR3 cells)	IC50 (HT29 cells)
O=S(=O)(CCO)Nc1ccc(-c2nnc(-c3cc4cccn4c(N4CCC(F)(F)CC4)n3)o2)c(N2CCC3(CC2)CC3)c1 [Example 32]	113 nM	187 nM	251 nM
Cc1cc(-c2nnc(-c3ccc(NS(=O)(=O)CCO)cc3N3CCC4(CC3)CC4)s2)nc(N2CCC(F)(F)CC2)n1 [Example 14, N-(4-(5-(2-(4,4-difluoropiperidin-1-yl)-6-methylpyrimidin-4-yl)-1,3,4-thiadiazol-2-yl)-3-(6-azaspiro[2.5]oct-6-yl)phenyl)-2-hydroxyethane-1-sulfonamide]	158 nM	145 nM	88 nM
COc1cc(-c2cn(-c3ccc(NS(=O)(=O)CCO)cc3N3CCC4(CC3)CC4)nn2)cc(N2CCC(F)(F)CC2)n1 [Example 62, N-(4-(4-(2-(4,4-difluoropiperidin-1-yl)-6-methoxypyridin-4-yl)-1H-1,2,3-triazol-1-yl)-3-(6-azaspiro[2.5]octan-6-yl)phenyl)-2-hydroxyethane-1-sulfonamide]	272 nM	59 nM	60 nM
Cc1cc(-c2cn(-c3ccc(NS(=O)(=O)CCO)cc3N3CCC4(CC3)CC4)cn2)nc(N2CCC(F)(F)CC2)n1 [Example 10, N-(4-(4-(2-(4,4-difluoropiperidin-1-yl)-6-methylpyrimidin-4-yl)-1H-imidazol-1-yl)-3-(6-azaspiro[2.5]octan-6-yl)phenyl)-2-hydroxyethane-1-sulfonamide]	251 nM	46 nM	56 nM
O=S(=O)(CCO)Nc1ccc(/C(F)=C\c2cc(N3CCC(F)(F)CC3)c3ncccc3c2)c(N2CCC3(CC2)CC3)c1 [Example 3, (E)-N-(4-(2-(8-(4,4-difluoropiperidin-1-yl)quinolin-6-yl)-1-fluorovinyl)-3-(6-azasppiro[2.5]octan-6-yl)phenyl)-2-hydroxyethane-1-sulfonamide]	852 nM	181 nM	210 nM
O=S(=O)(CCO)Nc1ccc(-n2cc(-c3cc(NCCO)nc(N4CCC(F)(F)CC4)n3)nn2)c(N2CCC3(CC2)CC3)c1 [Example 57, N-(3-{6-azaspiro[2.5]octan-6-yl}-4-{4-[2-(4,4-difluoropiperidin-1-yl)-6-[(2-hydroxyethyl)amino]pyrimidin-4-yl]-1H-1,2,3-triazol-1-yl}phenyl)-2-hydroxyethane-1-sulfonamide]	72 nM	8 nM	4.5 nM
Cc1cc(-c2cn(-c3ccc(NS(=O)(=O)CCO)cc3N3CCC4(CC3)CC4)nn2)nc(C2=CCC(F)(F)CC2)n1 [Example 37, N-(4-(4-(2-(4,4-difluorocyclohex-1-en-1-yl)-6-methylpyrimidin-4-yl)-1H-1,2,3-triazol-1-yl)-3-(6-azaspiro[2.5]octan-6-yl)phenyl)-2-hydroxyethane-1-sulfonamide]	253 nM	87 nM	161 nM
O=S(=O)(CCO)Nc1ccc(-c2nnc(-c3cc(O)nc(N4CCC(F)(F)CC4)n3)o2)c(N2CCC3(CC2)CC3)c1 [Example 21, N-(4-(5-(2-(4,4-difluoropiperidin-1-yl)-6-hydroxypyrimidin-4-yl)-1,3,4-oxadiazol-2-yl)-3-(6-azaspiro[2.5]octan-6-yl)phenyl)-2-hydroxyethane-1-sulfonamide]	67 nM	1620 nM	> 3000 nM
Cc1cc(-c2nnc(-c3ccc(NS(=O)(=O)CCO)cc3N3CCC4(CC3)CC4)o2)nc(N2CCC(F)(F)CC2)n1 [Example 15, N-(4-(5-(2-(4,4-difluoropiperidin-1-yl)-6-methylpyrimidin-4-yl)-1,3,4-oxadiazol-2-yl)-3-(6-azaspiro[2.5]octan-6-yl)phenyl)-2-hydroxyethane-1-sulfonamide]	60 nM	61 nM	60 nM
CC(C)(O)c1ccc(-c2cn(-c3ccc(NS(=O)(=O)CCO)cc3N3CCC4(CC3)CC4)nn2)nc1N1CCC(F)(F)CC1 [Example 70, N-(4-(4-(6-(4,4-difluoropiperidin-1-yl)-5-(2-hydroxypropan-2-yl)pyridin-2-yl)-1H-1,2,3-triazol-1-yl)-3-(6-azaspiro[2.5]octan-6-yl)phenyl)-2-hydroxyethanesulfonamide]	1230 nM	582 nM	700 nM
Cc1cc(-c2cn(-c3ccc(NS(=O)(=O)CCO)cc3N3CCC4(CC3)CC4)nn2)nc(N2[C@H](C)CC(F)(F)C[C@@H]2C)n1 [Example 50, N-(4-(4-(2-((2S,6R)-4,4-difluoro-2,6-dimethylpiperidin-1-yl)-6-methylpyrimidin-4-yl)-1H-1,2,3-triazol-1-yl)-3-(6-azaspiro[2.5]octan-6-yl)phenyl)-2-hydroxyethane-1-sulfonamide]	1050 nM	222 nM	245 nM
Cc1cc(-c2cn(-c3ccc(NS(=O)(=O)[C@H](C)CO)cc3N3CCC4(CC3)CC4)nn2)nc(N2CCC(F)(F)CC2)n1 [Example 83, (2R)—N-(3-{6-azaspiro[2.5]octan-6-yl}-4-{4-[2-(4,4-difluoropiperidin-1-yl)-6-methylpyrimidin-4-yl]-1H-1,2,3-triazol-1-yl}phenyl)-1-hydroxypropane-2-sulfonamide]	117 nM	13 nM	16 nM
Cc1cc(-n2cc(-c3ccc(NS(=O)(=O)CCO)cc3N3CCC4(CC3)CC4)nn2)cc(N2CCC(F)(F)CC2)n1 [Example 91]	278 nM	87 nM	126 nM
Cc1cc(-c2nnc(-c3ccc(N4CCCS4(=O)=O)cc3N3CCC4(CC3)CC4)o2)nc(N2CCC(F)(F)CC2)n1 [Example 28, 2-(4-(5-(2-(4,4-difluoropiperidin-1-yl)-6-methylpyrimidin-4-yl)-1,3,4-oxadiazol-2-yl)-3-(6-azaspiro[2.5]octan-6-yl)phenyl)isothiazolidine 1,1-dioxide]	293 nM	118 nM	192 nM

Compounds with a lower IC50 [1], results first:

IC50 [1]	IC50 (OVCAR3 cells)	IC50 (HT29 cells)	SMILES
46 nM	91 nM	122 nM	Cc1cc(-c2nnc(-c3ccc(NS(=O)(=O)CCO)cc3N3CCC4(CC3)CC4)o2)nc(N2CCC(F)(F)CC2)c1 [Example 25, N-(4-(5-(6-(4,4-difluoropiperidin-1-yl)-4-methylpyridin-2-yl)-1,3,4-oxadiazol-2-yl)-3-(6-azaspiro[2.5]octan-6-yl)phenyl)-2-hydroxyethane-1-sulfonamide]
42 nM	23 nM	21 nM	Cc1cc(-c2cn(-c3ccc(NS(=O)(=O)CCO)cc3N3CCC4(CC3)CC4)nn2)nc(C2=CCOCC2)n1 [Example 35, N-(4-(4-(2-(3,6-dihydro-2H-pyran-4-yl)-6-methylpyrimidin-4-yl)-1H-1,2,3-triazol-1-yl)-3-(6-azaspiro[2.5]octan-6-yl)phenyl)-2-hydroxyethane-1-sulfonamide]
25 nM	110 nM	299 nM	O=S(=O)(CCO)Nc1ccc(-n2cc(-c3cc(O)nc(N4CCC(F)(F)CC4)n3)nn2)c(N2CCC3(CC2)CC3)c1 [Example 52, N-(4-(4-(2-(4,4-difluoropiperidin-1-yl)-6-hydroxypyrimidin-4-yl)-1H-1,2,3-triazol-1-yl)-3-(6-azaspiro[2.5]octan-6-yl)phenyl)-2-hydroxyethane-1-sulfonamide]
24 nM	11 nM	7 nM	Nc1ncc(-c2cn(-c3ccc(NS(=O)(=O)CCO)cc3N3CCC4(CC3)CC4)nn2)nc1N1CCC(F)(F)CC1 [Example 79, N-(4-{4-[5-amino-6-(4,4-difluoropiperidin-1-yl)pyrazin-2-yl]-1H-1,2,3-triazol-1-yl}-3-{6-azaspiro[2.5]octan-6-yl}phenyl)-2-hydroxyethane-1-sulfonamide]
19 nM	12 nM	15 nM	Cc1cc(-c2cn(-c3ccc(NS(=O)(=O)CCO)cc3N3CCC4(CC3)CC4)nn2)nc(N2CCOCC2)n1 [Example 42, 2-hydroxy-N-(4-(4-(6-methyl-2-morpholinopyrimidin-4-yl)-1H-1,2,3-triazol-1-yl)-3-(6-azaspiro[2.5]octan-6-yl)phenyl)ethanesulfonamide]
16 nM	44 nM	62 nM	COc1cc(-n2cc(-c3ccc(NS(=O)(=O)CCO)cc3N3CCC4(CC3)CC4)nn2)nc(N2CCC(F)(F)CC2)n1 [Example 90, N-(3-{6-azaspiro[2.5]octan-6-yl}-4-{1-[2-(4,4-difluoropiperidin-1-yl)-6-methoxypyrimidin-4-yl]-1H-1,2,3-triazol-4-yl}phenyl)-2-hydroxyethane-1-sulfonamide]
